Test results as given in US20240197760A1, “ACTIVATORS OF INTEGRATED STRESS RESPONSE PATHWAY FOR PROTECTION AGAINST FERROPTOSIS” (Burke Neurological Institute, priority 2021, published 2024).

Experiments:
[1] = system: Creba, Crebb, Bdnf exon IV; assay: Plasticity gene expression in human i.p.s. derived mature cortical neurons; format: cell-based; details: increasing concentrations, 6 h
Experimental: Human iPSC line (C1-1) was previously generated from skin biopsy samples of newborn and had been fully characterized and passaged on MEF feeder layers (Wen et al. 2014). All studies followed institutional IRB and ISCRO protocols approved by University of Pennsylvania Perelman School of Medicine. Human iPSCs were differentiated into cortical neurons following the previously established protocol (Wen et al. 2014). Briefly, hiPSCs colonies were detached from the feeder layer with 1 mg/ml collagenase (Thermo Fisher Scientific) treatment for 30 min and suspended in embryonic body (EB) medium, consisting of bFGF-free iPSC medium supplemented with 2 μM Dorsomorphin (Tocris) and 2 μM A-83 (Tocris), in non-treated polystyrene plates for 4 days with a daily medium change. […]
The gene expression of Bndf exon IV, Creba and Crebb in human i.p.s. derived neurons were also assessed using two step qPCR. […] Quantitative RT-PCR was then performed using SYBR green (Applied Biosystems) and the StepOnePlus™ Real-Time PCR System (Applied Biosystems). Quantitative levels for all genes were normalized to the housekeeping gene GAPDH and expressed relative to the relevant control samples. […]

AMP/ATP ratio = AMP/ATP ratio from metabolic profiling of mouse primary neurons; format: cell-based; details: 10 mM, 8 h
Experimental: Targeted Metabolite profiling was performed according to a method described in a previous publication (Chen et al., 2016). Polar metabolites were extracted using cold 80% methanol. The extracts were dried completely with a Speedvac and redissolved in water before it was applied to the hydrophilic interaction chromatography LC-MS. The sample injection order was randomized. Metabolites were measured on a Q Exactive Orbitrap mass spectrometer (Thermo Scientific), which was coupled to a Vanquish UPLC system (Thermo Scientific) via an Ion Max ion source with a HESI II probe (Thermo Scientific). A Sequant ZIC-[…] column (2.1 mm i.d.×150 mm, particle size of 5 μm, Millipore Sigma) was used for separation of metabolites. A 2.1×20 mm guard column with the same packing material was used for protection of the analytical column. Flow rate was set at […]. […] The MS data was processed using XCalibur 4.1 (Thermo Scientific) to extract the metabolite signal intensity for relative quantitation. […] In pathway enrichment analysis, a single P value is calculated for each metabolic pathway. Pathway topology analysis measured the significance of a given experimentally identified metabolite in a pre-defined metabolic pathway.

## OC[C@H]1OC(O)C[C@@H](O)[C@@H]1O (stereo partly drawn) [2-DG, (4R,5S,6R)-6-(hydroxymethyl)oxane-2,4,5-triol]
[1]
  gene plasticity response (Creba, Crebb, Bdnf exon IV mRNA): gene plasticity response of neurons was still the same
AMP/ATP ratio
  AMP-ATP ratio: increase
